We go through 1 molecule from patent US11780832B2, “Lactivicin compounds, their preparation and use as antibacterial agents” (priority 2021, dated 2023).

In brackets after ≈: the same amount, converted by molar mass. Bounds are passed on as bounds.

Assay type in all cases: cell-based
The test system of assay [1] is Escherichia coli CMY-DHA. Put plainly: Synergistic activity: MIC in the presence of Avibactam. Summed up: (§1)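 Broth microdilution MICs (CLSI) of compound combined with avibactam at a fixed concentration or fixed ratio; synergy defined as MIC reduction relative to compound tested without β-lactamase inhibitor.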
In assay [2] the test system is Proteus mirabilis CMY-DHA. The description is as above. The settings on record: row r36, in the presence of Avibactam @ 4 μg/mL. Summed up: as §1
Assay [3] deals with Escherichia coli Elevated AmpC. Described as above. In outline: as §1
The test system of assay [4] is Enterobacter cloacae species complex Elevated AmpC. Described as above. Summed up: as §1
Assay [5] deals with Citrobacter freundii species complex Elevated AmpC. Described as above. To be noted: row r16, in the presence of Avibactam @ 4 μg/mL. In outline:
as §1

Assay [6] deals with Escherichia coli pSMART_Ecloacae_AmpC. Put plainly: MIC, CLSI broth microdilution. In outline:
(§2)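 Isolates stored at −80 °C in skim milk are passaged twice, suspended in broth, and challenged in microdilution panels per CLSI. Final drug range is 16-0.0125 μg/mL; final cell density is 5×10^5 CFU/mL.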

Assay [7] deals with Escherichia coli Isogenic TEM-26. Put plainly: MIC, CLSI broth microdilution. Summed up:
as §2

For assay [8], the system named is Escherichia coli Isogenic TEM-10. Nature of the assay: MIC, CLSI broth microdilution. Summed up:
as §2

On to `Nc1nc(/C(=N/OC2(C(=O)O)CC2)C(=O)N[C@H]2CON(C3(C(=O)O)C[C@H](N4C(=O)c5cc(O)c(O)cc5C4=O)C(=O)O3)C2=O)cs1` (stereo partly drawn) [Cmpd 1, (4S)-2-[(4S)-4-{[(2Z)-2-(2-amino-1,3-thiazol-4-yl)-2-{[(1-carboxycyclopropyl)oxy]imino}acetyl]amino}-3-oxo-1,2-oxazolidin-2-yl]-4-(5,6-dihydroxy-1,3-dioxo-1,3-dihydro-2H-isoindol-2-yl)-5-oxooxolane-2-carboxylic acid], for which the MIC in assay [1] (strain of row r26, in the presence of Avibactam @ 4 μg/mL) was 0.03 µg/mL; in assay [1] (strain of row r27, in the presence of Avibactam @ 4 μg/mL), “<=0.008 μg/mL”; in assay [1] (strain of row r28, in the presence of Avibactam @ 4 μg/mL) it was “<=0.008 μg/mL”; in assay [1] (strain of row r29, in the presence of Avibactam @ 4 μg/mL), 0.06 µg/mL; in assay [1] (strain of row r30, in the presence of Avibactam @ 4 μg/mL), “<=0.008 μg/mL”; in assay [1] (strain of row r31, in the presence of Avibactam @ 4 μg/mL) it was 0.06 µg/mL. For the same molecule, the MIC entry in assay [1] (strain of row r34, in the presence of Avibactam @ 4 μg/mL) is “<=0.008 μg/mL”; in assay [1] (strain of row r35, in the presence of Avibactam @ 4 μg/mL), “<=0.008 μg/mL”; in assay [2], 0.03 µg/mL; in assay [3] (strain of row r10, in the presence of Avibactam @ 4 μg/mL), “<=0.008 μg/mL”; in assay [3] (strain of row r11, in the presence of Avibactam @ 4 μg/mL), “<=0.008 μg/mL”; in assay [3] (strain of row r12, in the presence of Avibactam @ 4 μg/mL), 0.015 µg/mL. In addition, the minimal inhibitory concentration (MIC) entry was “<=0.008 μg/mL” in assay [3] (strain of row r13, in the presence of Avibactam @ 4 μg/mL); “<=0.008 μg/mL” in assay [3] (strain of row r14, in the presence of Avibactam @ 4 μg/mL); 0.06 µg/mL in assay [3] (strain of row r15, in the presence of Avibactam @ 4 μg/mL); 0.06 µg/mL in assay [4] (in the presence of Avibactam @ 4 μg/mL); 0.12 µg/mL in assay [4] (strain of row r7, in the presence of Avibactam @ 4 μg/mL); “<=0.008 μg/mL” in assay [4] (strain of row r20, in the presence of Avibactam @ 4 μg/mL). The MIC is 0.03 µg/mL in assay [5], 0.03 µg/mL (≈ 0.0454 µM) in assay [6], 0.0149 µg/mL (≈ 0.0226 µM) in assay [7] and 0.0149 µg/mL (≈ 0.0226 µM) in assay [8].
